The text below walks through data of article PMC5461367, “Neurologically Potent Molecules from Crataegus oxyacantha; Isolation, Anticholinesterase Inhibition, and Molecular Docking” (Frontiers in Pharmacology, 2017).

Where “and” joins values, the source holds several entries; their conditions need not be identical. Identical values can stand only once. Like-named read-outs stand apart in the source and are kept apart here.

The target in experiment [1] is AChE (Homo sapiens, UniProt P22303). Kind of experiment: biochemical. As to conditions: for inhibition at 62.5 µg/mL: 62.5 μg/ml; for inhibition at 250 µg/mL: 250 μg/ml; for IC50: read-out: AChE IC50 (μM ± SEM). How it is done:
(§1) This yellow compound is UV detectable and is quantified with the passage of time with and without the impact of inhibitor agent. Briefly, from each enzyme solution, 5 μl were added to wells of micro plate and 5 μl DTNB was added to it. The resultant mixture was incubated for 15 min at 30°C in water bath followed by addition of 5 μl substrate solution. […] Control contains all solutions except inhibitor. Change in absorbance was recorded along with reaction time. At the end, Enzymes and enzymes inhibitory activities by control and our test samples were calculated from the rate of absorption with change in time as (V = Δ Abs /Δ t) and Enzyme inhibition as; Percent Enzyme activity = 100 × V/VMax.
(§2) Where, VMax is enzyme activity in the absence of inhibitor agent.

In experiment [2] the target is BChE (Homo sapiens, UniProt P06276). Kind of experiment: biochemical. The settings on record: for inhibition at 62.5 µg/mL / inhibition at 250 µg/mL: read-out: % BChE inhibition; for IC50: read-out: BChE IC50 (μM ± SEM). How it is done:
as §1, §2

Experiment [3] deals with human brain based AChE. The settings on record: ref Harvey, 1995; cited from earlier work.
[4] abbreviates: ratio of IC50 values, footnote a not given.
Where [5] appears, read: ratio of IC50 values, footnote b not given.

Sequence of AChE (P22303 32-614): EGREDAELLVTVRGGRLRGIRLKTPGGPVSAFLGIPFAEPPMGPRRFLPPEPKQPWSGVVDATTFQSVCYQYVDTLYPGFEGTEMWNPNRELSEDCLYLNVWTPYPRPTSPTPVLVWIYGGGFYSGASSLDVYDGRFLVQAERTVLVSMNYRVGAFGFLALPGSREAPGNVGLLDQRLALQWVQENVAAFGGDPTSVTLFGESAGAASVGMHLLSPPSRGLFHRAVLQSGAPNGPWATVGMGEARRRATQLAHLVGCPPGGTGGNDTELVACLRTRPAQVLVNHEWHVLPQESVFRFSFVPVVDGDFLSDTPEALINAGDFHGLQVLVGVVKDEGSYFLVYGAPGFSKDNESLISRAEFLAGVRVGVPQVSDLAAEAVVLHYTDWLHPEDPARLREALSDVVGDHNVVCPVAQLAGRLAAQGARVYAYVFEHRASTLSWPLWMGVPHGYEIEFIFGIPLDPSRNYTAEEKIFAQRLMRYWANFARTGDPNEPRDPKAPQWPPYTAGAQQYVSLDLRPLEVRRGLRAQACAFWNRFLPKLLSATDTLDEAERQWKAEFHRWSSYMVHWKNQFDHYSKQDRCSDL
Sequence of BChE (P06276 29-602): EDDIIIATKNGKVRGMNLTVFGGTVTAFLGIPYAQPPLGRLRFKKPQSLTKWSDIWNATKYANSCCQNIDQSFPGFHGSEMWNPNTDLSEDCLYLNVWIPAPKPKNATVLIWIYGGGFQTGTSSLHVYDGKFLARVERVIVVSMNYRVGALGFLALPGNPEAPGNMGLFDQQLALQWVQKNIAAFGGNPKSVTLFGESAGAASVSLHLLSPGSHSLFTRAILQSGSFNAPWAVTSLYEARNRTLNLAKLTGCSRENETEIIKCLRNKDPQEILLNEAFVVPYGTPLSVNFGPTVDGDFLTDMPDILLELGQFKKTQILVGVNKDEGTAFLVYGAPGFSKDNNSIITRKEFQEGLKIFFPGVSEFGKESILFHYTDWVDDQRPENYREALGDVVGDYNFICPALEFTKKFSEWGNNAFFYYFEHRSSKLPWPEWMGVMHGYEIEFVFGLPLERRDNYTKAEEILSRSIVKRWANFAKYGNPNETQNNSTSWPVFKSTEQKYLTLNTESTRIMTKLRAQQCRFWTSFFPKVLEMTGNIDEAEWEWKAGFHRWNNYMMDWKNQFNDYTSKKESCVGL

For orientation: inhibition means the percentage by which the read-out fell short of the control. Usually IC50 stands for the point on the concentration scale where inhibition reaches its midpoint. Consider `COc1ccc(C(CO)OC)cc1OC` (stereo not shown) [Compound 1, 2-(3,4-Dimethoxyphenyl)-2-Methoxyethanol], for which the inhibition at 62.5 µg/mL was 89.7 ± 1.47% in experiment [1] and 84.3 ± 2.19% in experiment [2] (62.5 μg/ml). For the same compound, the inhibition at 250 µg/mL in experiment [1] came out at 97.3 ± 1.06%; in experiment [2] (250 μg/ml), 90.7 ± 1.34%. Also, the AChE selectivity in experiment [1] (setting [4]) is given as 0.10. The IC50 in experiment [1] stood at 23.2 ± 1.02 µM; in experiment [2] it was 2.41 ± 0.09 µM. Besides, the BChE selectivity in experiment [2] (setting [5]) was determined as 9.62.
On to `COc1cc(C(=O)CCO)ccc1O` [Compound 2, 3-Hydroxy-1-(4-Hydroxy-3-Methoxyphenyl) Propan-1-One], for which the inhibition at 62.5 µg/mL in experiment [1] worked out at 83.74 ± 0.68%; in experiment [2] (62.5 μg/ml), 87.6 ± 1.06%. In addition, the inhibition at 250 µg/mL in experiment [1] stood at 93.05 ± 0.75%; in experiment [2] (250 μg/ml), 95.76 ± 0.71%. Further, the AChE selectivity in experiment [1] (setting [4]) amounted to 0.59. For the same compound, the IC50 in experiment [1] was found to be 25.9 ± 1.35 µM; in experiment [2], 15.4 ± 1.01 µM. In addition, the BChE selectivity in experiment [2] (setting [5]) is given as 1.69.
Consider `CCC(CCC(C)C1CCC2C3CC=C4CC(OC5OC(CO)C(O)C(O)C5O)CCC4(C)C3CCC12C)C(C)C` [Compound 3, β-Sitosterol-3-O-β-D-Glucopyranoside], for which the figures for the inhibition at 62.5 µg/mL in experiment [1] and in experiment [2] (62.5 μg/ml) were 87.9 ± 0.52% and 83.03 ± 0.35%, respectively. Besides, the inhibition at 250 µg/mL in experiment [1] was 95.7 ± 1.6%; in experiment [2] (250 μg/ml), 94.84 ± 0.3%. Also, the AChE selectivity in experiment [1] (setting [4]) was determined as 2.26. Also, the IC50 in experiment [1] is 5.22 ± 0.59 µM; in experiment [2] it was 11.8 ± 0.93 µM. Besides, the BChE selectivity in experiment [2] (setting [5]) came to 0.47.
Turning to `C=C(C)[C@@H]1CC[C@]2(C)CC[C@]3(C)[C@H](CC[C@@H]4[C@@]5(C)CC[C@H](O)C(C)(C)[C@@H]5CC[C@]43C)[C@@H]12` [Compound 4, Lupeol], the figures for the inhibition at 62.5 µg/mL in experiment [1] and in experiment [2] (62.5 μg/ml) were 77.87 ± 0.26% and 85.8 ± 1.5%, respectively. The results for the inhibition at 250 µg/mL in experiment [1] and in experiment [2] (250 μg/ml) were 93.73 ± 0.78% and 91.42 ± 0.43%, respectively. For the same compound, in experiment [1] (setting [4]), the AChE selectivity is given as 0.04. Moreover, the results for the IC50 in experiment [1] and in experiment [2] were 36.3 ± 1.89 µM and 1.31 ± 0.12 µM, respectively. Besides, the BChE selectivity in experiment [2] (setting [5]) worked out at 27.71.
For `CC[C@H](CC[C@@H](C)[C@H]1CC[C@H]2[C@@H]3CC=C4C[C@@H](O)CC[C@]4(C)[C@H]3CC[C@]12C)C(C)C` [Compound 5, β-Sitosterol], in experiment [1], the AChE selectivity is given as 0.04, the inhibition at 62.5 µg/mL turned out to be 80%, the inhibition at 250 µg/mL is 91.33 ± 0.49% and the IC50 came to 14.6 ± 0.85 µM. In addition, in experiment [2], the BChE selectivity was determined as 26.62; the half-maximal inhibitory concentration (IC50) was 0.55 µM and 0.56 µM. The inhibition at 62.5 µg/mL in experiment [2] (62.5 μg/ml) stood at 87.08 ± 0.47%. The inhibition at 250 µg/mL in experiment [2] (250 μg/ml) amounted to 92.6 ± 1.12%.
For the compound `C=C(C)[C@@H]1CC[C@]2(CO)CC[C@]3(C)[C@H](CC[C@@H]4[C@@]5(C)CC[C@H](O)C(C)(C)[C@@H]5CC[C@]43C)[C@@H]12` [Compound 6, 3β, 28-Dihydroxylup-20(29)-ene], the inhibition at 62.5 µg/mL in experiment [1] was 84 ± 1.15%; in experiment [2] (62.5 μg/ml), 82.5 ± 0.9%. For the same compound, the figures for the inhibition at 250 µg/mL in experiment [1] and in experiment [2] (250 μg/ml) were 96.13 ± 0.2% and 95.8 ± 2.25%, respectively. Further, the AChE selectivity in experiment [1] (setting [4]) was found to be 1.06. Besides, the IC50 in experiment [1] stood at 24 ± 1.1 µM; in experiment [2] it was 25.6 ± 1.25 µM. The BChE selectivity in experiment [2] (setting [5]) is 0.93.
For `C=C(C)[C@@H]1CC[C@]2(C(=O)O)CC[C@]3(C)[C@H](CC[C@@H]4[C@@]5(C)CC[C@H](O)C(C)(C)[C@@H]5CC[C@]43C)[C@@H]12` [Compound 7, 3β-Dihydroxylup-20(29)-ene-28-oic Acid], the values for the inhibition at 62.5 µg/mL in experiment [1] and in experiment [2] (62.5 μg/ml) were 77.7 ± 1.25% and 87.2 ± 1.28%, respectively. Also, the figures for the inhibition at 250 µg/mL in experiment [1] and in experiment [2] (250 μg/ml) were 95.7 ± 1.6% and 94.1 ± 0.6%, respectively. In addition, the AChE selectivity in experiment [1] (setting [4]) is reported as 0.07. In addition, the results for the IC50 in experiment [1] and in experiment [2] were 44.5 ± 1.73 µM and 3.48 ± 0.15 µM, respectively. In experiment [2] (setting [5]), the BChE selectivity is 12.78.
With `O=c1cc(-c2ccccc2)oc2cc(O)cc(O)c12` [Compound 9, 5,7-Dihydroxyflavone], the inhibition at 62.5 µg/mL was 81.2 ± 0.23% in experiment [1] and 80.9 ± 1.9% in experiment [2] (62.5 μg/ml). Moreover, the inhibition at 250 µg/mL in experiment [1] stood at 93.67 ± 0.88%; in experiment [2] (250 μg/ml), 85%. The AChE selectivity in experiment [1] (setting [4]) was 0.02. The figures for the IC50 in experiment [1] and in experiment [2] were 32.3 ± 1.8 µM and 0.63 ± 0.06 µM, respectively. In addition, the BChE selectivity in experiment [2] (setting [5]) is given as 51.27.
For `COc1ccc2c3c1O[C@H]1C[C@@H](O)C=C[C@@]31CCN(C)C2` [Galantamine, reference compound], the “lower potency against human brain based AChE as compared to RBCs variant” value in experiment [3] is listed as 10 times. Further, in experiment [2], the inhibition at 62.5 µg/mL came out at 87.8 ± 1.01% and the inhibition at 250 µg/mL came to 95.3 ± 1.09%.
